Measurements taken from PMC8873228, “In-depth comparison of the metabolic and pharmacokinetic behaviour of the structurally related synthetic cannabinoids AMB-FUBINACA and AMB-CHMICA in rats” (Communications Biology, 2022).
“Also recorded” adds a separate entry of the source. Where two headings read alike, the source gives them in different places.

Key:
[1] = Quantification of parent compounds and O-demethyl metabolites in rat brain, liver, kidney, serum and urine by UHPLC-HRMS after intraperitoneal injection; type: in vivo, male Sprague-Dawley rats; details: 1 mg/kg i.p.; for concentration at 30 min: 30 min after injection
Method: 8 male Sprague-Dawley rats (8 weeks old, weighing between 385 and 425 g) were used as animal models (Janvier Labs, Le Genest-Saint-Isle, France). Animals were housed individually in polypropylene plastic cages under controlled temperature (24 ± 2 °C) and lighting conditions (12 h:12 h; lights ON at 8 AM), with ad libitum access to food and water. Before SCRA injection, animals were handled and habituated to the experimental room for 1 week. All the experiments were approved by the Committee of Ethics and Animal Experimentation of Universitat Jaume I (2019/VSC/PEA/048) and treated throughout according to the European Union Council Directive of June 3rd, 2010 (6106/1/10 REV1).
SCRAs were dosed intraperitoneally at 1 mg/kg. This dose was selected based on similar studies reported in literature. The solution used for injection was prepared at 1 mg/mL in physiological saline solution containing 5% ethanol. Between 385 and 425 µL of that solution were injected depending on animal weight. Blood (serum), liver, brain, and kidney samples were dissected 15, 30, and 180 min after injection (previously anesthetised with CO2 and decapitated immediately). Blood was collected mainly from carotid arteries and jugular veins and kept at room temperature for 30 min to elicit coagulation. Then, blood was centrifuged 10 min at 2000 rcf at 4 °C in order to separate serum from sedimented clot. Liver, kidney, and brain were rapidly dissected and snap-freezing in liquid nitrogen. One animal was used for each dissection time. Additional serum, liver, brain, and kidney samples were obtained from an animal 48 h after being SCRA-dosed, and used as control. Urine samples were collected at 30, 60, 90, 120, 180, 240, 300, and 360 min, together with an additional sample at 24 h (composite urine sample between 360 min and 24 h, collected from animal dissected at 48 h). Urine samples were obtained from the bottom of the cage at the indicated time. Additionally, urine sample collected from one of the animals prior to injection was used as control. Samples were snap-frozen in liquid nitrogen after collection, and preserved at −23 °C until analysis.
Solid samples (brain, liver, and kidney) were crushed with dry ice using an electric grinder. 0.1 g were accurately weighed (±0.1 mg) in 1.5 mL polypropylene tubes, and 0.3 mL of acetonitrile acidified with 1% of formic acid were added for extraction. After that, samples were sonicated for 5 min, followed by 30 min of vortex agitation. Samples were then frozen for 30 min in order to increase protein removal. Finally, they were centrifuged at 12,500 rfc during 15 min, and the supernatant was 10-fold diluted with ultrapure water for UHPLC-HRMS analysis.
Similarly to solid samples, samples were frozen for 30 min, centrifuged at 12,500 rfc for 15 min, and the supernatant 10-fold diluted with ultrapure water for UHPLC-HRMS analysis.
For parent compounds and O-demethyl metabolites estimated quantification, a calibration line in solvent from 2.5 to 250 ng/mL was included in each batch analysis, as well as different quality control samples (QCs) prepared with blank extracts and spiked at 200 ng/mL for evaluating matrix effect and apply a correction factor.
Samples were analysed using an Acquity ultra-performance liquid chromatography (UPLC) system (Waters Corp, Mildford, MA, USA) coupled to a Xevo G2 QTOF (Waters Corp, Manchester, UK) mass spectrometer with quadrupole time-of-flight (QTOF) hybrid mass analyser.
Chromatographic separation was performed using a Cortecs T3 100 ×2.1 mm, 1.6 µm particle size analytical column (Waters Corp, Wexford, Ireland), maintained at 40 °C. […] Injection volume was 50 µL.

pooled human hepatocytes = details: AMB-FUBINACA incubated with pooled human hepatocytes; cited from earlier work
[2] = 15 min after injection, one sample, estimated concentration, 1 mg/kg
[3] = male, Sprague-Dawley, brain, ip, 1 mg/kg, 15 min after injection, one sample, estimated concentration, read-out: Brain concentration
[4] = male, Sprague-Dawley, brain, ip, 1 mg/kg, one sample, estimated concentration, read-out: Brain concentration
[5] = male, Sprague-Dawley, brain/serum, ip, read-out: Brain/serum ratio, tissue (ng/g)/serum (ng/mL)
[6] = male, Sprague-Dawley, kidney, ip, 1 mg/kg, 15 min after injection, one sample, estimated concentration, read-out: Kidney concentration
[7] = male, Sprague-Dawley, kidney, ip, 1 mg/kg, one sample, estimated concentration, read-out: Kidney concentration
[8] = male, Sprague-Dawley, kidney/serum, ip, read-out: Kidney/serum ratio, tissue (ng/g)/serum (ng/mL)
[9] = male, Sprague-Dawley, liver, ip, 1 mg/kg, 15 min after injection, one sample, estimated concentration, read-out: Liver concentration
[10] = male, Sprague-Dawley, liver, ip, 1 mg/kg, one sample, estimated concentration, read-out: Liver concentration
[11] = male, Sprague-Dawley, liver, ip, 1 mg/kg, 180 min after injection, one sample, estimated concentration, read-out: Liver concentration
[12] = male, Sprague-Dawley, liver/serum, ip, read-out: Liver/serum ratio, tissue (ng/g)/serum (ng/mL)
[13] = male, Sprague-Dawley, liver/serum, ip, 180 min, read-out: Liver/serum ratio, tissue (ng/g)/serum (ng/mL)
[14] = male, Sprague-Dawley, serum, ip, 1 mg/kg, 15 min after injection, one sample, estimated concentration, read-out: Serum concentration
[15] = male, Sprague-Dawley, serum, ip, 1 mg/kg, one sample, estimated concentration, read-out: Serum concentration
[16] = male, Sprague-Dawley, serum, ip, 1 mg/kg, 180 min after injection, one sample, estimated concentration, read-out: Serum concentration
[17] = male, Sprague-Dawley, kidney, ip, 1 mg/kg, 180 min after injection, one sample, estimated concentration, read-out: Kidney concentration
[18] = 48 h after injection, one sample, estimated concentration, 1 mg/kg

Structure (SMILES) | Brain concentration [1, 2] [ng/g] | concentration at 15 min [1, 3] [ng/g] | concentration at 30 min [1, 4] [ng/g] | Kp at 15 min [1, 5] | Kp at 30 min [1, 5] | concentration at 15 min [1, 6] [ng/g] | concentration at 30 min [1, 7] [ng/g] | Kp at 15 min [1, 8] | Kp at 30 min [1, 8] | concentration at 15 min [1, 9] [ng/g] | concentration at 30 min [1, 10] [ng/g] | concentration at 180 min [1, 11] [ng/g] | Kp at 15 min [1, 12] | Kp at 30 min [1, 12] | Kp at 180 min [1, 13] | concentration at 15 min [1, 14] [ng/mL] | concentration at 30 min [1, 15] [ng/mL] | concentration at 180 min [1, 16] [ng/mL] | Liver concentration [1, 2] [ng/g] | concentration at 180 min [1, 17] [ng/g] | other results
COC(=O)C(NC(=O)c1cn(CC2CCCCC2)c2ccccc12)C(C)C (stereo not drawn) [AMB-CHMICA] | 21.3 | 21 | 20.7 | 0.47 | 0.31 | 36.5 | 66 | 0.81 | 1 | 846 | 874 | < 5 | 18.8 | 13.3 | 1.18 | 45.1 | 65.9 | 3.93 |  |  | Liver concentration ([1]; 180 min after injection, one sample, estimated concentration, 1 mg/kg): 4.64 ng/g
COC(=O)C(NC(=O)c1nn(Cc2ccc(F)cc2)c2ccccc12)C(C)C (stereo not drawn) [AMB-FUBINACA] | 57.2 | 57 | 18.4 | 4.38 | 6.05 | 42.6 | 16.4 | 3.27 | 5.42 | 7 | 4.59 |  | 0.56 | 1.52 |  | 13 | 3.03 |  | 7.25 | 3.36 | Liver concentration ([1]; 180 min after injection, one sample, estimated concentration): no longer detected; Blood-brain barrier permeability compared by brain/serum concentration ratio ([1]; at measured time points, versus AMB-CHMICA, 1 mg/kg): higher permeability than AMB-CHMICA (up to ten times); also recorded: around ten-fold more permeable than AMB-CHMICA; concentration at 180 min ([1]; male, Sprague-Dawley, brain, ip, 1 mg/kg, 180 min after injection, one sample, estimated concentration, read-out: Brain concentration): 2.64 ng/g
CC(C)C(NC(=O)c1nn(Cc2ccc(F)cc2)c2ccccc12)C(=O)O (stereo not drawn) [O-demethyl AMB-FUBINACA] |  |  | 3.83 |  | 0.05 | 12.5 | 27.4 | 0.5 | 0.36 | 110 | 356 | 265 | 4.47 | 4.63 | 1.94 | 25 | 76.8 | 136 | 111 | 43.7 | Serum concentration [1, 2]: 24.9 ng/mL; Urine concentration ([1]; 24 h (composite urine 360 min to 24 h)): 7.33 ng/mL; Liver concentration [1, 18]: 31.49 ng/g; Serum concentration [1, 18]: 5.72 ng/mL; Kp at 180 min ([1]; male, Sprague-Dawley, kidney/serum, ip, 180 min, read-out: Kidney/serum ratio, tissue (ng/g)/serum (ng/mL)): 0.32; concentration at 48 h ([1]; male, Sprague-Dawley, liver, ip, 1 mg/kg, 48 h after injection, one sample, estimated concentration, read-out: Liver concentration): 31 ng/g; concentration at 48 h ([1]; male, Sprague-Dawley, serum, ip, 1 mg/kg, 48 h after injection, one sample, estimated concentration, read-out: Serum concentration): 6 ng/mL; concentration at 180 min ([1]; male, Sprague-Dawley, urine, ip, 1 mg/kg, 180 min, read-out: Urine concentration): 5.78 ng/mL; concentration at 300 min ([1]; male, Sprague-Dawley, urine, ip, 1 mg/kg, 300 min): 1.13 ng/mL; Incubation time after which the O-demethyl metabolite was the major compound in incubation media (pooled human hepatocytes): 2 to 3 min
